The source of these data is article PMC10244169, “Psychedelics promote plasticity by directly binding to BDNF receptor TrkB” (Nature Neuroscience, 2023).

Data set [1] concerns TrkB. The data set can be described thus: Western blot of TrkB protein expression in N2a cells. The note with it: WT and Y433F^+/−. Type of data set: cell-based. How it is done: In a separate set of experiments to examine the effect of 5-HT2A activation, M100907 (100 nM) was administered as a 10 min pretreatment and remained in the medium for the rest of the experiment. Next, cells were lysed and centrifuged. […] The co-immunoprecipitation was carried out as previously described[11],[23],[24] with minor modifications. Briefly, Magnetic Dynabeads Protein G (Invitrogen, 10004D) were coated with anti-TrkB antibody (R&D Systems, AF1494) at 200 ng of antibody per 1 µl of beads in rotation (2 h, 4 °C). Finally, lysates were mixed with the coated beads (100 µg of total protein per 15 µl of beads) and incubated in rotation (overnight, 4 °C).
Proteins were separated according to their molecular weight by SDS–PAGE and transferred to a polyvinylidene fluoride membrane. Membranes were incubated with the following primary antibodies (all 1:1,000 in 3% BSA in TBS-T, overnight, 4 °C): anti-TrkB (R&D Systems, AF1494), anti-β-actin (Sigma-Aldrich, A1978), anti-phospho-mTOR (Cell Signaling Technology, 5536S), anti-phospho-p44/42 MAPK (Erk1/2) (Cell Signaling Technology, 9106S), anti-mTOR (Cell Signaling Technology, 2972S) and anti-p44/42 MAPK (Erk1/2) (Cell Signaling Technology, 9102S). […] Protein bands were visualized using enhanced chemiluminescent substrate (Thermo Scientific, 32132, ECL Plus) and imaged with a charge-coupled device camera (G:BOX, Syngene).

Data set [2] relates to dendritic arbor complexity of neuronal cultures. The data set can be described thus: Dendritogenesis (Sholl analysis) in neuronal cultures (WT and Y433F^+/−). The format is cell-based, mouse. The note with it: for e6e group mean (dendritogenesis, Sholl analysis): BDNF; for e6e Mean Diff. (Veh. minus BDNF): uncorrected Fisher's LSD. The procedure:
In a separate set of experiments to study the effects of extracellular BDNF and 5-HT2A activation, cultures were also pretreated for 10 min with TrkB.FC (200 ng ml^−1) or M100907 (100 nM), respectively. Similar to treatment with the psychedelics, TrkB.FC and M100907 pretreatments were administered in cumulative doses and remained in the medium for the rest of the experiment. At DIV7, neurons were pre-incubated for 1 h with […] MgCl2 to prevent excitotoxicity, then neurons were transfected for the heterologous expression of mCherry. To minimize any possible interference of the transfection protocol upon the drug effect, transfection was done in the morning while treatment with psychedelics was always added in the evening. Twenty-four hours after transfection, neurons were fixed with 4% PFA for 20 min at room temperature, washed in PBS-T, blocked for 30 min with 3% BSA in PBS-T and incubated with chicken anti-MAP2 (Abcam, ab5392; 1:5,000, 1 h, room temperature). Then, coverslips were washed in PBS-T and incubated with Alexa Fluor 647-conjugated antibody goat anti-chicken (Invitrogen, A-21449; 1:1,000, 1 h, room temperature). Next, coverslips were washed in PBS-T and MilliQ water, and mounted in Dako fluorescence mounting medium (Agilent, S302380-2). Ten optical sections with a Z-step of 1.3 μm were acquired using a Zeiss LSM 710 confocal microscope with a LCI Plan/Neofluar 25×/0.8 lmm Korr DIC M27 objective. In the mCherry channel, the center of the soma was manually assigned and the number of dendritic intersections at fixed distances (every 5 μm) from the soma was automatically counted using the Sholl analysis plugin of ImageJ.

The target of data set [3] is T1, TrkB (Rattus norvegicus, UniProt Q63604).
T1 construct: expressed in transfected cells; host or cells: HEK293T
T1 sequence (Q63604 32-821): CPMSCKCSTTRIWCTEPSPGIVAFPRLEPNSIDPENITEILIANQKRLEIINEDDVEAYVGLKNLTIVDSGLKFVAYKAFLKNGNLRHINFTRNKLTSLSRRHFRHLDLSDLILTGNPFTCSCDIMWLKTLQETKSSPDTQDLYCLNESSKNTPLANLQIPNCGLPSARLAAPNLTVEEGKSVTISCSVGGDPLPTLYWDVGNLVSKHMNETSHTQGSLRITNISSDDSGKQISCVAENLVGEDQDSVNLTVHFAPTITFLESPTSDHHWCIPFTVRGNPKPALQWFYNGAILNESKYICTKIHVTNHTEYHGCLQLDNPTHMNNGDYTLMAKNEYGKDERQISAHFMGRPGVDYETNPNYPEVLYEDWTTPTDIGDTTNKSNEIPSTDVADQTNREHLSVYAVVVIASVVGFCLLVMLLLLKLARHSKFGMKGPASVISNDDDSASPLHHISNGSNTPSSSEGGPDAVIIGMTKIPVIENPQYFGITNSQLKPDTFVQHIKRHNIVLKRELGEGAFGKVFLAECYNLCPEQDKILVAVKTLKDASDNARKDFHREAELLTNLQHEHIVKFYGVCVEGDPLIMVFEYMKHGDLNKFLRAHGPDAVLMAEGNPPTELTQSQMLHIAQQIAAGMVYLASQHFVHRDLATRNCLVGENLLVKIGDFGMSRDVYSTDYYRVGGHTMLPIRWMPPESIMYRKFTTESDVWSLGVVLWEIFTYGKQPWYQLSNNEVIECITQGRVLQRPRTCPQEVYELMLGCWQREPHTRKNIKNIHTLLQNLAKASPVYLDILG
The data set can be described thus: biochemical. The note with it: for displacement of ^3H-LSD from TrkB: 1 nM to 10 µM of drug; for K (one phase exponential decay, best-fit) / Plateau (one phase exponential decay, best-fit) / Span (one phase exponential decay, best-fit): ext fig 1h. The format is binding.

The conditions of data set [4]: Supplementary Table 3 legend; source not stated; cited from earlier work.
Data set [5] concerns the molecule itself. Nature of the data set: NMR titration; 1H,15N-HSQC spectra of TrkB TMD in DMPC/DHPC bicelles at various lipid-to-protein ratios, 40 °C, pH 6.0; monomer to dimer.

Regarding BDNF: Brain-derived neurotrophic factor, the “total TrkB expression” value in data set [1] is “No differences in total TrkB expression”. The “e6f Sholl profile, mean” value in data set [2] (WT + BDNF, distance from soma 10 µm) is reported as 6.929; in data set [2] (WT + BDNF, distance from soma 15 µm), 9.643; in data set [2] (WT + BDNF, distance from soma 20 µm), 7.929; in data set [2] (WT + BDNF, distance from soma 25 µm) it was 7.929; in data set [2] (WT + BDNF, distance from soma 30 µm) it was 6; in data set [2] (WT + BDNF, distance from soma 35 µm), 4.5. For the same molecule, the “e6f Sholl profile, mean” value in data set [2] (WT + BDNF, distance from soma 40 µm) turned out to be 3.857; in data set [2] (WT + BDNF, distance from soma 45 µm) it was 3.571; in data set [2] (WT + BDNF, distance from soma 50 µm), 2.714; in data set [2] (WT + BDNF, distance from soma 55 µm) it was 2.429; in data set [2] (WT + BDNF, distance from soma 60 µm), 2.786; in data set [2] (WT + BDNF, distance from soma 65 µm), 2.643. The “e6f Sholl profile, mean” value in data set [2] (WT + BDNF, distance from soma 70 µm) amounted to 3.143; in data set [2] (WT + BDNF, distance from soma 75 µm), 2.929; in data set [2] (WT + BDNF, distance from soma 80 µm) it was 2.714; in data set [2] (WT + BDNF, distance from soma 85 µm), 2.786; in data set [2] (WT + BDNF, distance from soma 90 µm) it was 2.286; in data set [2] (WT + BDNF, distance from soma 95 µm), 1.857. In addition, the “e6f Sholl profile, mean” value in data set [2] (WT + BDNF, distance from soma 100 µm) is 1.857; in data set [2] (Y433F+/- + BDNF, distance from soma 10 µm), 8.0625; in data set [2] (Y433F+/- + BDNF, distance from soma 15 µm), 9.4375; in data set [2] (Y433F+/- + BDNF, distance from soma 20 µm), 10.25; in data set [2] (Y433F+/- + BDNF, distance from soma 25 µm), 8.8125; in data set [2] (Y433F+/- + BDNF, distance from soma 30 µm), 8.1875. Moreover, the “e6f Sholl profile, mean” value in data set [2] (Y433F+/- + BDNF, distance from soma 35 µm) is 6.3125; in data set [2] (Y433F+/- + BDNF, distance from soma 40 µm), 5.375; in data set [2] (Y433F+/- + BDNF, distance from soma 45 µm), 5.1875; in data set [2] (Y433F+/- + BDNF, distance from soma 50 µm) it was 3.9375; in data set [2] (Y433F+/- + BDNF, distance from soma 55 µm) it was 3.6875; in data set [2] (Y433F+/- + BDNF, distance from soma 60 µm), 3.25. In addition, the “e6f Sholl profile, mean” value was determined as 2.5625 in data set [2] (Y433F+/- + BDNF, distance from soma 65 µm); 2.5 in data set [2] (Y433F+/- + BDNF, distance from soma 70 µm); 1.875 in data set [2] (Y433F+/- + BDNF, distance from soma 75 µm); 2 in data set [2] (Y433F+/- + BDNF, distance from soma 80 µm); 1.625 in data set [2] (Y433F+/- + BDNF, distance from soma 85 µm); 1.4375 in data set [2] (Y433F+/- + BDNF, distance from soma 90 µm). The “e6f Sholl profile, mean” value came out at 1.75 in data set [2] (Y433F+/- + BDNF, distance from soma 95 µm) and 1.3125 in data set [2] (Y433F+/- + BDNF, distance from soma 100 µm). Further, the “e6e group mean (dendritogenesis, Sholl analysis)” value was determined as 78.5 in data set [2] (WT neuronal cultures, n=14) and 87.56 in data set [2] (Y433F+/- neuronal cultures, n=16). Also, the “e6e Mean Diff. (Veh. minus BDNF)” value in data set [2] (WT:Veh. vs. WT:BDNF) is -30.1; in data set [2] (Y433F+/-:Veh. vs. Y433F+/-:BDNF), -34.03. The figures for the dendritic arbor complexity result in data set [2] (cultures from WT mice) and in data set [2] (cultures from Y433F^+/− mice) were “increases dendritic arbor complexity” and “increased dendritic arbor complexity”, respectively.
As for `CN1C[C@H](C(=O)N[C@]2(C)O[C@@]3(O)[C@@H]4CCCN4C(=O)[C@H](Cc4ccccc4)N3C2=O)C[C@@H]2c3cccc4[nH]cc(c34)C[C@H]21` [dihydroergotamine], in data set [3], the “displacement of ^3H-LSD from TrkB” value is given as “fail to displace ^3H-LSD”; the “K (one phase exponential decay, best-fit)” value was found to be 5.40E+07; the “Plateau (one phase exponential decay, best-fit)” value turned out to be 93.57; the “Span (one phase exponential decay, best-fit)” value was 15.09. For the same molecule, in data set [4], the pKa was 6.75.
As for `C=CCN1C[C@H](C(=O)N(CCCN(C)C)C(=O)NCC)C[C@@H]2c3cccc4[nH]cc(c34)C[C@H]21` [cabergoline], in data set [3], the “displacement of ^3H-LSD from TrkB” value is “fail to displace ^3H-LSD”; the “K (one phase exponential decay, best-fit)” value amounted to 776405; the “Plateau (one phase exponential decay, best-fit)” value was 113.3; the “Span (one phase exponential decay, best-fit)” value is -10.49. Also, the pKa in data set [4] is 6.22.

B1: TrkB TMD (transmembrane residues of human TrkB, T423-G466) (domain or fragment, UniProt Q16620 423-466, looked up)
chain: TDKTGREHLSVYAVVVIASVVGFCLLVMLFLLKLARHSKFGMKG
notes: human TrkB, transmembrane residues T423-G466, UniProt Q16620; 15N- or 15N,13C-labelled; Cloned by NdeI and HindIII into pGEMEX1
B1: the binding result in data set [5] is recorded as “binds”.

A word on the pKa: it is the pH at which an ionisable group is half protonated.
